Reference: PMC5632533, “Mechanisms of action and in vivo antibacterial efficacy assessment of five novel hybrid peptides derived from Indolicidin and Ranalexin against Streptococcus pneumoniae” (PeerJ, 2017)

Experiments:
S. pneumoniae [1] = assay: ATP efflux assay; assay type: cell-based, Streptococcus pneumoniae; conditions: peptides 125 µg/ml (RN7-IN7 500 µg/ml); for ATP released from pneumococcal cells after 3 h / ATP released from pneumococcal cells after 1 h: 1 × 10^7 CFU/ml, luciferin/luciferase, ATP standard curve, mean ± SD, three independent experiments
Experimental: The amount of ATP released from pneumococcal cells incubated with hybrid peptides was measured as described previously, with a slight modification ([Tanida et al., 2006]). The ATP determination kit (Molecular Probes, Eugene, OR, USA) was used to measure the amount of ATP released based on the luciferin/luciferase method according to the manufacturer’s instructions. Briefly, S. pneumoniae were grown overnight on Columbia agar with 5% sheep blood. Bacterial suspensions were spectrophotometrically adjusted to (1 × 10^7 CFU/ml) and incubated with hybrid peptides RN7-IN10, RN7-IN9, RN7-IN8 and RN7-IN6 at 125 µg/ml and with RN7-IN7 at 500 µg/ml. The amount of ATP released form the pneumococcal cells were measured at three time points 1, 2 and 3 h. The samples were then centrifuged at 5,000 rpm for 5 min, and ATP efflux was subsequently estimated using an ATP standard curve. Values were obtained from three independent experiments. Ceftriaxone and erythromycin were used as positive controls.

S. pneumoniae [2] = assay: Transmission electron microscopy (TEM) of treated cells; assay type: cell-based, Streptococcus pneumoniae; conditions: 10^8 CFU/ml in CAMHB; 8 × MIC (125 µg/ml; RN7-IN7 500 µg/ml); 1 h, 37 °C, 5% CO2
Experimental: Bacteria were prepared for TEM according to the guidelines of the Electron Microscopy Unit at the Faculty of Medicine, University of Malaya. S. pneumoniae cultures were grown overnight on Columbia agar with 5% sheep blood and suspended in cationally adjusted Mueller-Hinton broth (CAMHB) at 10^8 CFU/ml. […] Cells in cationally adjusted Mueller-Hinton broth (CAMHB) were used as an untreated control. After an hour of incubation, the pneumococcal cells were centrifuged to discard the medium, washed thrice with 10 mM phosphate buffer saline at pH 7.3 and fixed overnight in 4% (v/v) glutaraldehyde. All samples were washed twice with cacodylate buffer, incubated for 2 h in osmium tetroxide buffer (OsO4 1: 1 cacodylate), washed twice with cacodylate buffer and then incubated overnight in cacodylate buffer. All the samples were washed with distilled water twice and incubated for 10 min with uranyl acetate. After this, all samples were then washed twice with distilled water and dehydrated in an ascending series of ethanol: 35% (10 min), 50% (10 min), 70% (10 min), 95% (15 min), and thrice in 100% ethanol (15 min). After dehydration, samples were incubated with propylene oxide (15 min), propylene oxide 1:1 Epon (1 h), propylene oxide 1:3 Epon (2 h) and finally incubated overnight with Epon. All the samples were embedded in agar 100 resin at 37 °C for 5 hr and maintained at 60 °C until viewing. Reichert Ultramicrotome copper grids 3.05 mm (300 square mesh) (Agar Scientific, Essex, United Kingdom) were used to prepare Ultrathin sections. Ethanol-based uranyl acetate and lead citrate were used to stain the samples for 5 min. Transmission electron microscope (Leo Libra 120) was used to capture the images.

| Substance | ATP released from pneumococcal cells after 3 h (S. pneumoniae [1]) | TEM: detachment of cell wall from cell membrane (S. pneumoniae [2]) | ATP released from pneumococcal cells after 1 h (S. pneumoniae [1]) | ATP released, Average 1hr (S. pneumoniae [1]; raw data sheet, mean of 3) | ATP released, Average 2hr (S. pneumoniae [1]; raw data sheet, mean of 3) | ATP released, Average 3hr (S. pneumoniae [1]; raw data sheet, mean of 3) |
| --- | --- | --- | --- | --- | --- | --- |
| FLGGLIKKWPWWPWRR-NH2 [RN7-IN9, hybrid peptide of ranalexin (residues 1-7) and indolicidin (residues 5-13)] | 22.9 ± 3.22 pM | partial disconnection of the cell wall from the cell membrane |  |  |  |  |
| FLGGLIKWKWPWWPWRR-NH2 [RN7-IN10, hybrid peptide of ranalexin (residues 1-7) and indolicidin (residues 4-13)] | 25.42 ± 3.51 pM |  | 54.5 ± 4.7 pM | 54.4965 pM | 41.9293 pM | 25.4295 pM |
| FLGGLIKWPWWPWRR-NH2 [RN7-IN8, hybrid peptide of ranalexin (residues 1-7) and indolicidin (residues 6-13)] | 20.54 ± 1.03 pM | partial disconnection of the cell wall from the cell membrane | 39.03 ± 0.2 pM |  |  |  |
| FLGGLIKWWPWRR-NH2 [RN7-IN6, hybrid peptide of ranalexin (residues 1-7) and indolicidin (residues 8-13)] | 11.47 ± 0.32 pM | partial disconnection of the cell wall from the cell membrane | 14.8 ± 0.35 pM |  |  |  |
